Assay [1] is described as follows: Quality of sweetness (early taste, later taste, astringency) in comparison to sucrose. Particulars: for early taste / later taste: determined in comparison to sucrose. The method, then:
Early taste and late taste are determined in comparison to sucrose. For example, a sweetener, when put in the mouth, can taste sweet as early as sucrose or later than sucrose.

For assay [2] the following is noted: cited from earlier work; for sweetening potency: relative to sucrose.

Residues, ends and D or L forms follow the SMILES beside them.

Consider `COC(=O)[C@H](Cc1ccccc1)NC(=O)[C@@H](N)CC(=O)O` [APM, aspartame] (H-Asp-Phe-OMe), for which, in assay [1], the early taste entry was “weak in early taste” and the later taste result is listed as “strong in later taste”. Also, in assay [2], the sweetening potency entry is given as “about 200 times that of sucrose”.
For `COC(=O)[C@H](Cc1ccccc1)NC(=O)[C@H](CC(=O)O)NCCC(C)(C)C` [N-(3,3-dimethylbutyl)-APM, N-[N-(3,3-dimethylbutyl)-L-α-aspartyl]-L-phenylalanine methyl ester], in assay [1], the “astringency (astringent taste)” value is on record as “strong in astringency”, the early taste entry is on record as “extremely weak” and the later taste result is reported as “extremely strong”. The quality of sweetness result in assay [1] (compared to sucrose / single ingredients) is “badly balanced”. Also, the “sweetening potency (in words)” value in assay [2] (as shown in French Patent No. 2697844) is reported as “markedly improved sweetening potency”. In assay [2], the sweetening potency is 10,000 times that of sucrose.

(Values after patent publication US6444251B1, “Sweetener compositions containing aspartame and aspartame derivative” (Ajinomoto Co., Inc., priority 1997, dated 2002).)
